Measured values reported in the supplement of paper PMC11451515.

Tests used:
Details in all cases: 48 h
SEM cells [1] = test: AUC of viability dose-response curve (% viability x log10 dose units); higher = less sensitive
In short: (§1)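 Leukemia cells adapted to each medium were seeded in 1536-well plates (500 or 1000 cells/well). They were dosed with library compounds in DMSO at 11 threefold doses, 47 μM to 0.79 nM, for 48 h at 37°C. CellTiter-Glo One luminescence was normalised per plate to DMSO and cell-free wells. Area under the curve was integrated by trapezoidal rule over log10 doses on a four-parameter log-logistic fit; curves exceeding full viability were scaled and curves failing quality control removed.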

NOMO1 [2] = test: as above
In short: as §1

P12-Ichikawa [3] = test: as above
In short: as §1

SEM cells [4] = test: cell viability relative to DMSO control; higher = less cytotoxic
In short: (§2)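 Viability is expressed as a percentage of DMSO wells within each plate, and cell-free wells serve as background. Seeding densities in the 1536-well plates (5 μl) were 500 cells/well for NOMO1 or SEM leukemia cells and 1000 cells/well for P12-Ichikawa. Each line was adapted for at least four passages in each medium. Library compounds in DMSO were pin-dosed at 47 μM to 0.79 nM (11 points, threefold), and CellTiter-Glo One luminescence was read after 48 h at 37°C.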

NOMO1 [5] = test: as above
In short: as §2

P12-Ichikawa [6] = test: as above
In short: as §2

C[C@]\1(CCS\C(=N1)N)C2=CC(=C(F)C=C2F)C3=CN=CN=C3
AUC of viability dose-response curve
Details | NOMO1 [2] | P12-Ichikawa [3] | SEM cells [1]
HPLM + 10% dialyzed FBS | 378 | 411 | 441
RPMI 5 mM glucose + 10% FBS | 359 | 420 | 390
RPMI 5 mM glucose + 10% dialyzed FBS | 383 | 435 | 429

cell viability [%]
Details | NOMO1 [5] | P12-Ichikawa [6] | SEM cells [4]
HPLM + 10% dialyzed FBS, 0.000781 µM | 95.4 | 98.2 | 80
HPLM + 10% dialyzed FBS, 0.00234 µM | 106 | 101 | 95.5
HPLM + 10% dialyzed FBS, 0.00702 µM | 103 | 112 | 91.6
HPLM + 10% dialyzed FBS, 0.0211 µM | 95.2 | 103 | 94.5
HPLM + 10% dialyzed FBS, 0.0632 µM | 118 | 110 | 90.4
HPLM + 10% dialyzed FBS, 0.19 µM | 112 | 115 | 94.6
HPLM + 10% dialyzed FBS, 0.569 µM | 98.2 | 115 | 108
HPLM + 10% dialyzed FBS, 1.71 µM | 91.3 | 122 | 99.3
HPLM + 10% dialyzed FBS, 5.12 µM | 38.1 | 106 | 102
HPLM + 10% dialyzed FBS, 15.4 µM | 25 | 15.2 | 102
HPLM + 10% dialyzed FBS, 46.1 µM | 3.54 | 2.53 | 29.3
RPMI 5 mM glucose + 10% FBS, 0.000781 µM | 105 | 99.3 | 92
RPMI 5 mM glucose + 10% FBS, 0.00234 µM | 107 | 103 | 84.1
RPMI 5 mM glucose + 10% FBS, 0.00702 µM | 101 | 119 | 98
RPMI 5 mM glucose + 10% FBS, 0.0211 µM | 100 | 117 | 104
RPMI 5 mM glucose + 10% FBS, 0.0632 µM | 98 | 113 | 106
RPMI 5 mM glucose + 10% FBS, 0.19 µM | 101 | 114 | 95.7
RPMI 5 mM glucose + 10% FBS, 0.569 µM | 100 | 121 | 96.6
RPMI 5 mM glucose + 10% FBS, 1.71 µM | 60.6 | 113 | 114
RPMI 5 mM glucose + 10% FBS, 5.12 µM | 20.3 | 117 | 71.2
RPMI 5 mM glucose + 10% FBS, 15.4 µM | 20.1 | 30.2 | 5.19
RPMI 5 mM glucose + 10% FBS, 46.1 µM | 15 | 8.85 | 2.28
RPMI 5 mM glucose + 10% dialyzed FBS, 0.000781 µM | 80.4 | 92.1 | 95.1
RPMI 5 mM glucose + 10% dialyzed FBS, 0.00234 µM | 107 | 109 | 80.4
RPMI 5 mM glucose + 10% dialyzed FBS, 0.00702 µM | 98.5 | 104 | 107
RPMI 5 mM glucose + 10% dialyzed FBS, 0.0211 µM | 103 | 109 | 111
RPMI 5 mM glucose + 10% dialyzed FBS, 0.0632 µM | 109 | 110 | 103
RPMI 5 mM glucose + 10% dialyzed FBS, 0.19 µM | 106 | 108 | 96.4
RPMI 5 mM glucose + 10% dialyzed FBS, 0.569 µM | 100 | 101 | 101
RPMI 5 mM glucose + 10% dialyzed FBS, 1.71 µM | 96.2 | 98.6 | 108
RPMI 5 mM glucose + 10% dialyzed FBS, 5.12 µM | 26.4 | 99.8 | 95.8
RPMI 5 mM glucose + 10% dialyzed FBS, 15.4 µM | 19.8 | 62 | 51.3
RPMI 5 mM glucose + 10% dialyzed FBS, 46.1 µM | 22.5 | 13.4 | 2.95

Nc1ccccc1NC(=O)c1ccc(CNc2nccc(-c3cccnc3)n2)cc1
AUC of viability dose-response curve
Details | NOMO1 [2] | P12-Ichikawa [3] | SEM cells [1]
HPLM + 10% dialyzed FBS | 351 | 355 | 312
RPMI 5 mM glucose + 10% FBS | 364 | 349 | 306
RPMI 5 mM glucose + 10% dialyzed FBS | 353 | 352 | 304

cell viability [%]
Details | NOMO1 [5] | P12-Ichikawa [6] | SEM cells [4]
HPLM + 10% dialyzed FBS, 0.000781 µM | 111 | 106 | 98.4
HPLM + 10% dialyzed FBS, 0.00234 µM | 115 | 107 | 101
HPLM + 10% dialyzed FBS, 0.00702 µM | 117 | 108 | 117
HPLM + 10% dialyzed FBS, 0.0211 µM | 118 | 113 | 109
HPLM + 10% dialyzed FBS, 0.0632 µM | 119 | 110 | 119
HPLM + 10% dialyzed FBS, 0.19 µM | 117 | 120 | 110
HPLM + 10% dialyzed FBS, 0.569 µM | 105 | 113 | 73.1
HPLM + 10% dialyzed FBS, 1.71 µM | 72.1 | 85.6 | 25.5
HPLM + 10% dialyzed FBS, 5.12 µM | 23.4 | 7.68 | 8.57
HPLM + 10% dialyzed FBS, 15.4 µM | 9.43 | 6.63 | 6.62
HPLM + 10% dialyzed FBS, 46.1 µM | 9.03 | 7 | 7.25
RPMI 5 mM glucose + 10% FBS, 0.000781 µM | 90.9 | 101 | 89.7
RPMI 5 mM glucose + 10% FBS, 0.00234 µM | 113 | 106 | 94.4
RPMI 5 mM glucose + 10% FBS, 0.00702 µM | 103 | 109 | 91.6
RPMI 5 mM glucose + 10% FBS, 0.0211 µM | 103 | 110 | 97.6
RPMI 5 mM glucose + 10% FBS, 0.0632 µM | 122 | 111 | 105
RPMI 5 mM glucose + 10% FBS, 0.19 µM | 114 | 110 | 105
RPMI 5 mM glucose + 10% FBS, 0.569 µM | 97.8 | 114 | 69.4
RPMI 5 mM glucose + 10% FBS, 1.71 µM | 83.2 | 71.1 | 21.8
RPMI 5 mM glucose + 10% FBS, 5.12 µM | 27.2 | 9.5 | 7.2
RPMI 5 mM glucose + 10% FBS, 15.4 µM | 9.84 | 6.39 | 6.22
RPMI 5 mM glucose + 10% FBS, 46.1 µM | 8.73 | 6.22 | 6.49
RPMI 5 mM glucose + 10% dialyzed FBS, 0.000781 µM | 108 | 109 | 92.7
RPMI 5 mM glucose + 10% dialyzed FBS, 0.00234 µM | 117 | 107 | 111
RPMI 5 mM glucose + 10% dialyzed FBS, 0.00702 µM | 115 | 113 | 106
RPMI 5 mM glucose + 10% dialyzed FBS, 0.0211 µM | 119 | 122 | 106
RPMI 5 mM glucose + 10% dialyzed FBS, 0.0632 µM | 132 | 122 | 117
RPMI 5 mM glucose + 10% dialyzed FBS, 0.19 µM | 114 | 117 | 105
RPMI 5 mM glucose + 10% dialyzed FBS, 0.569 µM | 106 | 110 | 62.8
RPMI 5 mM glucose + 10% dialyzed FBS, 1.71 µM | 74.7 | 83 | 17.5
RPMI 5 mM glucose + 10% dialyzed FBS, 5.12 µM | 24.2 | 8.72 | 7.07
RPMI 5 mM glucose + 10% dialyzed FBS, 15.4 µM | 12.2 | 7.24 | 6.52
RPMI 5 mM glucose + 10% dialyzed FBS, 46.1 µM | 10.7 | 6.17 | 7.92
